In article PMC8208785, “Therapeutic efficacy of novel memantine nitrate MN‐08 in animal models of Alzheimer’s disease” (Aging Cell, 2021):
Read-outs that look alike come from different tables or passages of the source.

Key:
APP/PS1 mice = assay: behavioral tests (SDA, NOR, MWM), prevention study in APP/PS1 mice; format: in vivo; details: 6 mg/kg gastric gavage, ages 2 to 8 months
Procedure: APP/PS1 transgenic mice were purchased from Jackson Laboratory and reproduced in the Shenzhen Center for Disease Control and Prevention (Shenzhen, China). Two‐month‐old APP/PS1 mice were divided into four groups: (1) APP/PS1 + Vehicle group; (2) APP/PS1 + MN‐08 (6 mg/kg) group; (3) APP/PS1 + Memantine (Mem, 5 mg/kg) group; (4) APP/PS1 + Donepezil (Done, 1.3 mg/kg, once daily) group; (5) Two‐month‐old C57BL/6J mice as a control group. The APP/PS1 mice were administered drugs twice a day (Done, once daily) by gastric gavage from ages 2 to 8 months for 6 months successively. Control and vehicle groups received equal volumes of saline.
The step-down avoidance (SDA) test was performed as previously described (Zhou et al., 2019). During the training phase, mice were singly placed on a metal floor with electrical stimulation (35 V) for 5 min. After 24 hours, the mouse was positioned on a wooden platform, while the metal floor at the bottom delivered an electrical shock (35 V) for another 5 min. The time for the animal to step down from the wooden platform were recorded as the step-down latency to evaluate retention memory.
Hippocampus-dependent spatial memory was determined by the Morris water maze (MWM) test according to the protocol described in a previous study (Jiao et al., 2015). The MWM test includes a platform training phase and a probe trial phase. An escape platform was placed in a fixed spatial location. During the training phase, each animal was placed at one of four different starting positions and tested four times a day with an interval of approximately 30 min. The animal in the water was immediately removed when it swam to the escape platform within 60 s. […] After the training phase, the probe trial was performed on the sixth day when the platform was removed. The animal was placed in the same starting position in the pool and allowed to move freely for 2 min. The animal swimming track was recorded and analyzed with a digital camera.
The novel object recognition test was performed to assess non-spatial working memory according to previously published protocols (Choi et al., 2011). Firstly, each animal was sequentially placed into a square box (50 × 50 × 50 cm, length × width × height) without any objects for 10 min per day for 2 continuous days to habituate to the environment. Then, two identical objects were placed parallel near one wall of the square box. Animals were placed singly in the box and allowed to explore the objects for 10 min. […] The time each animal took to examine the familiar object and novel object was recorded by digital camera. The discrimination index was calculated according to the following expression: (novel object (s) - familiar object (s))/ (novel object (s) + familiar object (s)). […]

[1] = brain exposure of MN-08 in rats; format: in vivo, SD rats; details: for concentration at 0.5 h / concentration at 1 h / concentration at 24 h: both sexes, Sprague-Dawley, rat, oral
Procedure: Bio-distribution studies were carried out in healthy adult rats (3 males and 3 females). All rats were administered MN-08 at a single dose of 12 mg/kg by gastric gavage. Brain and plasma were collected at 0.5, 1 and 24 h post dosing. Tissue samples were homogenized and then centrifuged at 12000 rpm for 10 min. The supernatants were injected into the LC-MS/MS system for analysis of MN-08 concentration according to the method previously described (Tian et al., 2016).

CCC12CC3CC(N)(C1)CC(CO[N+](=O)[O-])(C3)C2 (stereo not drawn) [MN‐08]
escape latency in Morris water maze test (APP/PS1 mice): markedly shortened
number of crossings in Morris water maze test (APP/PS1 mice): increased
discrimination index in novel object recognition (NOR) test (APP/PS1 mice; vs vehicle): significantly increased
latency in step‐down avoidance (SDA) test (APP/PS1 mice; vs vehicle): significantly increased
concentration in brain tissue relative to plasma [1]: much higher than that in the plasma
blood‐brain barrier penetration ([1]; 12 mg/kg gastric gavage): readily penetrates the blood‐brain barrier
mean concentration in brain ([1]; 12 mg/kg gastric gavage, 0.5 h, 12 mg/kg): 5793 ± 1033 ng/g
mean concentration in brain ([1]; 12 mg/kg gastric gavage, 1 h, 12 mg/kg): 10952 ± 3236 ng/g
mean concentration in brain ([1]; 12 mg/kg gastric gavage, 24 h, 12 mg/kg): 1661 ± 183.4 ng/g
concentration at 0.5 h ([1]; brain, 12 mg/kg gastric gavage, 0.5 h, read-out: mean concentration in brain): 5790 ng/g
concentration at 1 h ([1]; brain, 12 mg/kg gastric gavage, 1 h, read-out: mean concentration in brain): 11000 ng/g
concentration at 24 h ([1]; brain, 12 mg/kg gastric gavage, 24 h, read-out: mean concentration in brain): 1660 ng/g
concentration at 0.5 h ([1]; 12 mg/kg, 0.5 h, assuming 1 g brain tissue is 1 ml, read-out: concentration in the brain): ~19.9 µM
concentration at 1 h ([1]; 12 mg/kg, 1 h, assuming 1 g brain tissue is 1 ml, read-out: concentration in the brain): ~37.7 µM
concentration at 24 h ([1]; 12 mg/kg, 24 h, assuming 1 g brain tissue is 1 ml, read-out: concentration in the brain): ~5.71 µM
concentration at 0.5 h ([1]; plasma, 12 mg/kg gastric gavage, 0.5 h, read-out: mean concentration in plasma): 781 ± 99 ng/mL
concentration at 1 h ([1]; plasma, 12 mg/kg gastric gavage, 1 h, read-out: mean concentration in plasma): 726 ± 141 ng/mL
concentration at 24 h ([1]; plasma, 12 mg/kg gastric gavage, 24 h, read-out: mean concentration in plasma): 73.4 ± 23.8 ng/mL
